Laboratory results: patent US8192962B2, “Processes for detecting toxic substances” (Daikin Industries, Ltd., priority 2001, dated 2012)

Test system: Mitochondria-located protein genes
Test: DNA chip mRNA expression in yeast, mitochondria-located protein genes (Table 2)
Format: cell-based, Saccharomyces cerevisiae S288C
Conditions: cells incubated two hours with the chemical substance
How it was run: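 In this screen, yeast in logarithmic growth are challenged for two hours with a toxic substance at a non-lethal inhibitory concentration. Their mRNA, converted to Cy3- or Cy5-labeled cDNA, hybridizes at 65° C. to a chip spanning every yeast gene, and expression is expressed as a ratio to untreated cells.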

Substance: manganese ethylenebis(dithiocarbamate) [(8)]
- The level of expressed mRNA in the presence of chemical substance/The level of expressed mRNA in the absence of chemical substance (yeast gene YJR121W): 0.7
- The level of expressed mRNA in the presence of chemical substance/The level of expressed mRNA in the absence of chemical substance (yeast gene YKL003C): 1.2
- The level of expressed mRNA in the presence of chemical substance/The level of expressed mRNA in the absence of chemical substance (yeast gene YKL016C): 1.6
- The level of expressed mRNA in the presence of chemical substance/The level of expressed mRNA in the absence of chemical substance (yeast gene YKL141W): 0.8
- The level of expressed mRNA in the presence of chemical substance/The level of expressed mRNA in the absence of chemical substance (yeast gene YKL142W): 2.3
- The level of expressed mRNA in the presence of chemical substance/The level of expressed mRNA in the absence of chemical substance (yeast gene YKL148C): 0.8
- The level of expressed mRNA in the presence of chemical substance/The level of expressed mRNA in the absence of chemical substance (yeast gene YKL170W): 1.2
- The level of expressed mRNA in the presence of chemical substance/The level of expressed mRNA in the absence of chemical substance (yeast gene YKL194C): 1.1
- The level of expressed mRNA in the presence of chemical substance/The level of expressed mRNA in the absence of chemical substance (yeast gene YKR066C): 0.7
- The level of expressed mRNA in the presence of chemical substance/The level of expressed mRNA in the absence of chemical substance (yeast gene YLL041C): 0.8
- The level of expressed mRNA in the presence of chemical substance/The level of expressed mRNA in the absence of chemical substance (yeast gene YLR038C): 1.4
- The level of expressed mRNA in the presence of chemical substance/The level of expressed mRNA in the absence of chemical substance (yeast gene YLR259C): 0.8
- The level of expressed mRNA in the presence of chemical substance/The level of expressed mRNA in the absence of chemical substance (yeast gene YLR295C): 1.2
- The level of expressed mRNA in the presence of chemical substance/The level of expressed mRNA in the absence of chemical substance (yeast gene YLR304C): 0.6
- The level of expressed mRNA in the presence of chemical substance/The level of expressed mRNA in the absence of chemical substance (yeast gene YLR348C): 0.9
- The level of expressed mRNA in the presence of chemical substance/The level of expressed mRNA in the absence of chemical substance (yeast gene YLR395C): 1.0
- The level of expressed mRNA in the presence of chemical substance/The level of expressed mRNA in the absence of chemical substance (yeast gene YML054C): 1.5
- The level of expressed mRNA in the presence of chemical substance/The level of expressed mRNA in the absence of chemical substance (yeast gene YML120C): 0.9
- The level of expressed mRNA in the presence of chemical substance/The level of expressed mRNA in the absence of chemical substance (yeast gene YML129C): 1.2
- The level of expressed mRNA in the presence of chemical substance/The level of expressed mRNA in the absence of chemical substance (yeast gene YMR023C): 1.4
- The level of expressed mRNA in the presence of chemical substance/The level of expressed mRNA in the absence of chemical substance (yeast gene YMR035W): 1.4
- The level of expressed mRNA in the presence of chemical substance/The level of expressed mRNA in the absence of chemical substance (yeast gene YMR083W): 1.1
- The level of expressed mRNA in the presence of chemical substance/The level of expressed mRNA in the absence of chemical substance (yeast gene YMR089C): 1.3
- The level of expressed mRNA in the presence of chemical substance/The level of expressed mRNA in the absence of chemical substance (yeast gene YMR152W): 0.8
- The level of expressed mRNA in the presence of chemical substance/The level of expressed mRNA in the absence of chemical substance (yeast gene YMR203W): 0.7
- The level of expressed mRNA in the presence of chemical substance/The level of expressed mRNA in the absence of chemical substance (yeast gene YMR267W): 1.5
- The level of expressed mRNA in the presence of chemical substance/The level of expressed mRNA in the absence of chemical substance (yeast gene YNL055C): 0.7
- The level of expressed mRNA in the presence of chemical substance/The level of expressed mRNA in the absence of chemical substance (yeast gene YNL071W): 0.9
- The level of expressed mRNA in the presence of chemical substance/The level of expressed mRNA in the absence of chemical substance (yeast gene YNL073W): 1.0
- The level of expressed mRNA in the presence of chemical substance/The level of expressed mRNA in the absence of chemical substance (yeast gene YNL104C): 0.9
- The level of expressed mRNA in the presence of chemical substance/The level of expressed mRNA in the absence of chemical substance (yeast gene YNL256W): 0.9
- The level of expressed mRNA in the presence of chemical substance/The level of expressed mRNA in the absence of chemical substance (yeast gene YOL096C): 1.0
- The level of expressed mRNA in the presence of chemical substance/The level of expressed mRNA in the absence of chemical substance (yeast gene YOR020C): 1.7
- The level of expressed mRNA in the presence of chemical substance/The level of expressed mRNA in the absence of chemical substance (yeast gene YOR037W): 1.5
- The level of expressed mRNA in the presence of chemical substance/The level of expressed mRNA in the absence of chemical substance (yeast gene YOR100C): 1.0
- The level of expressed mRNA in the presence of chemical substance/The level of expressed mRNA in the absence of chemical substance (yeast gene YOR130C): 0.8
- The level of expressed mRNA in the presence of chemical substance/The level of expressed mRNA in the absence of chemical substance (yeast gene YOR142W): 0.8
- The level of expressed mRNA in the presence of chemical substance/The level of expressed mRNA in the absence of chemical substance (yeast gene YOR150W): 1.1
- The level of expressed mRNA in the presence of chemical substance/The level of expressed mRNA in the absence of chemical substance (yeast gene YOR176W): 1.0
- The level of expressed mRNA in the presence of chemical substance/The level of expressed mRNA in the absence of chemical substance (yeast gene YOR187W): 0.7
- The level of expressed mRNA in the presence of chemical substance/The level of expressed mRNA in the absence of chemical substance (yeast gene YOR316C): 0.8
- The level of expressed mRNA in the presence of chemical substance/The level of expressed mRNA in the absence of chemical substance (yeast gene YPL040C): 1.1
- The level of expressed mRNA in the presence of chemical substance/The level of expressed mRNA in the absence of chemical substance (yeast gene YPL134C): 1.3
- The level of expressed mRNA in the presence of chemical substance/The level of expressed mRNA in the absence of chemical substance (yeast gene YPL135W): 1.0
- The level of expressed mRNA in the presence of chemical substance/The level of expressed mRNA in the absence of chemical substance (yeast gene YPL215W): 1.1
- The level of expressed mRNA in the presence of chemical substance/The level of expressed mRNA in the absence of chemical substance (yeast gene YPL262W): 1.0
- The level of expressed mRNA in the presence of chemical substance/The level of expressed mRNA in the absence of chemical substance (yeast gene YPR024W): 0.7
- The level of expressed mRNA in the presence of chemical substance/The level of expressed mRNA in the absence of chemical substance (yeast gene YPR037C): 1.1
- The level of expressed mRNA in the presence of chemical substance/The level of expressed mRNA in the absence of chemical substance (yeast gene YPR047W): 1.2
- The level of expressed mRNA in the presence of chemical substance/The level of expressed mRNA in the absence of chemical substance (yeast gene YPR134W): 1.4
